# Measurements taken from publication PMC11378297, “Discovery and Profiling of New Multimodal Phenylglycinamide Derivatives as Potent Antiseizure and Antinociceptive Drug Candidates” (ACS Chemical Neuroscience, 2024).
# Where two headings read alike, the source gives them in different places. Marks after values point to notes of the source that are not given here.
# Tests used:
# [1] = test system: maximal electroshock (MES) seizures, mice; settings: i.p., cited from earlier work
# [2] = test system: 6 Hz (44 mA) seizures, mice; settings: i.p., cited from earlier work
# [3] = test system: mice (motor coordination); settings: racemates, chimney test, i.p.; cited from earlier work
# [4] = test system: 6 Hz (32 mA) seizures, mice; settings: i.p., cited from earlier work
# [5] = test system: PTZ-induced kindling, mice; assay: PTZ-induced kindling model; type: in vivo, mouse; settings: 150 mg/kg i.p. repeatedly, positive control
# Method: We investigated the impact of lead compound (R)-32 on PTZ-induced kindling in mice to further assess its antiseizure potential (Figure 3). […] The PTZ-induced kindling model is widely recognized as a useful method to induce chronic increase in susceptibility to epileptic seizures.
# Figure 3 Effect of repeated treatment with (R)-32 in PTZ-induced kindling model in mice. […] Data are presented as means of seizure severity (n = 10–15 animals). Statistical significance was evaluated by a mixed effects model for repeated measures followed by Tukey’s post hoc test: **p < 0.01, […] vs control group (GraphPad Prism 8.4.3).
# The procedure was performed as described in detail in our previous studies.[88],[89] […] Seizures were induced three times a week by i.p. administration of PTZ at a subconvulsive dose of 40 mg/kg. […] The seizure severity was scored using the modified Racine’s scale. […] The locomotor activity test, the elevated plus maze test, and the FST were performed 24 h after the last PTZ injection, according to the methods described in detail elsewhere. After completion of behavioral tests, animals were sacrificed. Hippocampi and cortices were dissected from the brains, frozen, and stored at −80 °C until assay. Following each PTZ injection, the mean seizure severity scores were determined for each experimental group. A mixed effects model for repeated measurements was used for analysis, along with Tukey’s post hoc test. The percentage of fully kindled mice was compared using Fisher’s exact probability test.
# [6] = test system: capsaicin-induced pain, mice; parameters: method as in PMID 28934547; settings: 200 mg/kg; cited from earlier work
# [7] = test system: formalin-induced pain, mice; parameters: method as in PMID 28934547; settings: previously tested in the authors' laboratory; cited from earlier work
# [8] = test system: glutamate and GABA concentrations in brain; assay: glutamate and GABA concentrations in hippocampus and cortex of PTZ-kindled mice; type: in vivo, mouse
# Text: After behavioral tests (FST, PTZ-induced kindling), we determined the changes in glutamate and GABA concentrations in the hippocampus and cortex. Since exposure to the FST can evoke various neurochemical alterations, two additional groups were employed in this experiment, i.e., control nonkindled mice that were exposed to the FST and naïve mice. No marked differences in both glutamate and GABA concentrations in the hippocampus were observed (Figure 5A). […] We found a significant increase in glutamate concentration in the cortex of mice subjected to the FST (p < 0.05 vs naive mice). […] Given that seizures are typically accompanied by elevated extracellular glutamate levels (an excitatory neurotransmitter), a decreased glutamate concentration in the cortex of kindled animals may appear to be an unexpected outcome. It should be highlighted, however, that the concentrations of glutamate and GABA in tissue homogenates rather than dialysate were measured in brain samples acquired 24 h following the previous PTZ dose, which may have an impact on the outcomes. On the other hand, decreased glutamate levels could be caused by the up-regulation of glutamate transporters, as the expression of glutamate transporters can increase following seizures.[48] For example, an increased expression of hippocampal GLT-1 was observed 24 h after kainic acid-induced status epilepticus in mice and PTZ-induced kindling in rats.[49] Moreover, similar to our findings, Szyndler et al.([50]) found decreased glutamate concentrations, with no changes in GABA concentrations, in homogenates of the hippocampus, striatum, and prefrontal cortex of PTZ-kindled rats.
# Figure 5 Changes in glutamate and GABA concentrations in the hippocampus (A) and cortex (B). Data are shown as means + SD (n = 9–14 animals). Statistical significance was evaluated by one-way ANOVA followed by Tukey’s post hoc test: *p < 0.05, **p < 0.01, ***p < 0.001 (GraphPad Prism 8.4.3).
# GABA and glutamate concentrations were determined using liquid chromatography tandem mass spectrometry (LC-MS/MS) in the mouse prefrontal cortex and hippocampus. Toronto Research Chemicals Inc. was the source of the standards for both analytes (Toronto, ON, Canada). GABA and glutamate stock standard solutions were made in methanol and deionized water, respectively, and kept cold at 4 °C. The stock solutions were suitably diluted to create a range of solution combinations with the appropriate concentrations. Prior to analysis, a hand-held pestle and glass tube homogenizer (Potter–Elvehjem PTFE pestle and glass tube, Sigma-Aldrich, St. Louis, MO, USA) were used to homogenize mouse brains in distilled water at a ratio of 50 μL/mg. Following a 10 min centrifugation at 8000g for 10 min at 4 °C, homogenates were diluted 10 times with 0.1% formic acid in MeCN from the supernatant. Samples (10 μL) were deproteinized with 80 μL of 0.1% formic acid in MeCN by shaking for 10 min (IKA Vibrax VXR, IKA Werke GmbH & Co. KG, Staufen im Breisgau, Germany) and centrifuged for 5 min at the speed of 8000g (Eppendorf miniSpin centrifuge) after isotope-labeled GABA-d6 and glutamate-d5 (Toronto Research Chemicals Inc., Toronto, ON, Canada) were added as internal standards (10 μL at the concentration of 500 ng/mL). The autosampler vials were filled with the acquired supernatants. […]
# [9] = test system: mature-BDNF (mBDNF) expression; assay: mBDNF expression in hippocampus and cortex of PTZ-kindled mice (Western blot); type: in vivo, mouse; settings: VPA repeated (150 mg/kg), p < 0.01 vs PTZ kindling control
# Text: However, there are also few reports showing opposite findings.[51],[52] […] No changes in the expression of the nerve growth factor (NGF) were observed (Figure 6D–F).
# Figure 6 Changes in mature-BDNF (mBDNF) expression in hippocampus (A) and cortex (C) and in proNGF expression in hippocampus (D) and cortex (F) with representative immunoblots, together with total protein amount visualized by the stain-free technique (B,E). Data are shown as means of relative expressions + SD (n = 8). Statistical significance was evaluated by one-way ANOVA followed by Tukey’s post hoc test: **p < 0.01 (GraphPad Prism 8.4.3).
# The Western Blot method was used to assess the expression of proNGF and mBDNF in the mouse brain and hippocampal tissues. Using a bead homogenizer (Bead Ruptor Elite, Omni International, USA), the cortical and hippocampal regions of the mouse brain were weighted and homogenized at a ratio of 9 μL/mg in 2% SDS supplemented with a cocktail of protease (Thermo Scientific, Walthman, MA, USA) and phosphatase inhibitors (Sigma-Aldrich, St. Louis, MO, USA). Samples were then centrifuged at 10,000g for 10 min at 4 °C after being denatured for 10 min at 95 °C. […] One-way ANOVA with Tukey’s post hoc test was utilized to examine changes in the relative expression of the proteins that were evaluated.
# [10] = test system: mice (motor coordination); settings: reference ASMs, rotarod test, i.p.; cited from earlier work
# [11] = hepatotoxicity, HepG2 cell viability; type: cell-based, human; settings: human, HepG2 hepatoma cells; 1 μM, 72 h of incubation (Figure 11)
# Method: The hepatotoxicity potential was assessed with the HepG2 cell line and the reference cytostatic drug doxorubicin.
# The results are presented as means + SD. Statistical significance was evaluated by one-way ANOVA, followed by Bonferroni’s multiple comparison post hoc test (Graph Pad Prism 8.0.1 software, San Diego, CA, USA): *p < 0.05, ***p < 0.001, ****p < 0.0001 vs negative control (DMSO 1% in growth media).
# TRPV1 (VR1) (h) = biological target: T1, TRPV1 (VR1) (h) (Homo sapiens, UniProt Q8NER1); assay: TRPV1 (VR1) (h) (antagonist effect); type: cell-based; settings: 100 µM, human recombinant CHO cells; read-out: % Inhibition of control specific binding (functional study, antagonist effect)
# T1 construct: host or cells: CHO cells
# T1 sequence (Q8NER1 whole entry): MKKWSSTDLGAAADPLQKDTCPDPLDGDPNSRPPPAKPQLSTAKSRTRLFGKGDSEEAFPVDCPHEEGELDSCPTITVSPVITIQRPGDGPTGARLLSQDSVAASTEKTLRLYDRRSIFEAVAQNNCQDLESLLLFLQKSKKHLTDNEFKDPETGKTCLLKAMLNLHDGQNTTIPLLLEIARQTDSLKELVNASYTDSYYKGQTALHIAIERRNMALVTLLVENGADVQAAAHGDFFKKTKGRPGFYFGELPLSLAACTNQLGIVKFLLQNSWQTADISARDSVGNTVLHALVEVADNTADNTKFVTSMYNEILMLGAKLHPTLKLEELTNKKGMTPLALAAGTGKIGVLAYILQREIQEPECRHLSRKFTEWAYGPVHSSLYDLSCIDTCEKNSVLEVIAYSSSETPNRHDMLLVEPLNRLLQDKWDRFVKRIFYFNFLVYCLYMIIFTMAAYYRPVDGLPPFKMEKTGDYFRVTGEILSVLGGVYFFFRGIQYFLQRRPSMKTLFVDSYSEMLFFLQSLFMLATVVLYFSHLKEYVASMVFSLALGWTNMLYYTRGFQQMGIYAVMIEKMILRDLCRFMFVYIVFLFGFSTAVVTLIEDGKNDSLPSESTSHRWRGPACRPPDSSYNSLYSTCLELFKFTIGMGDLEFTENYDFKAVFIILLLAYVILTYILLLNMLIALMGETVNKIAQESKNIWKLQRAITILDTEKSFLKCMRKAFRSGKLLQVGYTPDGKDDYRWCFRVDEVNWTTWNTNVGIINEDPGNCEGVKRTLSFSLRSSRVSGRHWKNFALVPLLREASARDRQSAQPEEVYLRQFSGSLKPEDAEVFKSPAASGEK
# Method: (§1) Further in vitro functional studies confirmed TRPV1 antagonist activity for (R)-31–(R)-33.
# (§2) Using previously described testing methodologies, binding/functional tests were conducted on a commercial basis at Eurofins Laboratories (Poitiers, France) and Eurofins Panlabs Discovery Services Taiwan, Ltd. (New Taipei City, Taiwan); see Table S9 for more information.
# (§3) Table S9. Radioligand binding and functional assays. […]
# TRPV1 (VR1) (h) (antagonist effect) […]
# (§4) Assays were performed commercially in Eurofins Laboratories (Poitiers, France) or Eurofins Panlabs Discovery Services
# (§5) Taiwan, Ltd. (New Taipei City, Taiwan).
# CB1 (h) = biological target: T2, CB1 (h) (Homo sapiens, UniProt P21554); assay: CB1 (h) (agonist effect); type: cell-based; settings: human recombinant CHO cells, read-out: % Inhibition of control specific binding (functional study, agonist effect)
# T2 construct: host or cells: CHO cells
# T2 sequence (P21554 whole entry): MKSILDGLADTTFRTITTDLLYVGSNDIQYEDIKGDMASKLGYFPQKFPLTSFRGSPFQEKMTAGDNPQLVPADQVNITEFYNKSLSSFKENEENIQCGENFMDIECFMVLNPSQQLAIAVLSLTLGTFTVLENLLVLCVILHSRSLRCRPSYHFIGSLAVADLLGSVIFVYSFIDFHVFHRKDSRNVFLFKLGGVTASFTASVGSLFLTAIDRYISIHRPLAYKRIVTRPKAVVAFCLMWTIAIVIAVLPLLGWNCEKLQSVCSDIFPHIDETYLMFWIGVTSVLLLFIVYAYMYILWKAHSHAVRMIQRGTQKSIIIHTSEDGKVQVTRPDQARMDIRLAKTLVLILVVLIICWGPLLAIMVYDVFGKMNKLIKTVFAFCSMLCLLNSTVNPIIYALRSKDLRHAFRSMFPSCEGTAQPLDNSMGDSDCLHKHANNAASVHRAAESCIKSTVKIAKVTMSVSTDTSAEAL
# Method: as §1
# (§6) Table S2. In vitro TRPV1 channel antagonist activity for compounds 3–12 (series A), 21–24 (series B) in […]
# (§7) Cmpd % Inhibition of control Cmpd % Inhibition of control agonist responsea agonist responsea
# (§8) *Source: human recombinant CHO cells. a Results showing activity higher than 50% are considered to represent significant […]
# (§9) around the control level. Assays were performed commercially in Eurofins Laboratories (Poitiers, France).
# (§10) Binding studies Source % Inhibition of control specific binding […]
# (§11) Na+ channel (site 2) Rat cerebral 94.9 (100)
# (§12) Cav1.2 (dihydropyridine Rat cerebral 58.0 (100) site, antagonist radioligand) cortex
# (§13) Functional studies Source % Inhibition of control specific binding […]
# (§14) (antagonist effect) CHO cells
# (§15) (agonist effect) CHO cells
# (§16) Table S9. Radioligand binding and functional assays.
# (§17) Cav1.2 (L-type) (h) calcium ion channel cell-based antagonist calcium flux assay TRPV1 (VR1) (h) (antagonist effect)
# (§18) TRPA1 (h) transient potential ion channel cell based antagonist calcium flux assay TRPM8 (h) (antagonist effect)
# (§19) Cav1.2 (L-type) (dihydropyridine site, antagonist radioligand) […]
# (§20) Assays were performed commercially in Eurofins Laboratories (Poitiers, France) or Eurofins Panlabs Discovery Services Taiwan, Ltd. (New Taipei City, Taiwan).
# [12] = test system: Cav1.2 (dihydropyridine site); assay: Cav1.2 (dihydropyridine site, antagonist radioligand) binding; settings: 100 µM, rat cerebral cortex
# Method: as §1, §6, §7, §8, §9, §10, §11, §12, §13, §14, §15, §16, §17, §18, §19, §20
# Na+ channel (site 2) = Na+ channel (site 2) radioligand binding; settings: 100 µM, rat cerebral cortex
# Method: The current body of literature consistently reports that both sodium (Navx) and Cav1.2 calcium ion channels can be involved in the pathogenesis of epilepsy[67]−[69] and neuropathic pain.[70]−[73] […] Therefore, we performed binding and functional studies toward sodium (site 2) and calcium Cav1.2 channels at concentrations of 10 μM for (R)-31−(R)-33.
# as §2, §3, §4, §5
# [13] = racemates, pretreatment time 0.5 h
# [14] = reference ASMs, pretreatment time 0.5 h (LCS, VPA) or 1.0 h (LEV, CBD)
# [15] = reference ASMs, pretreatment time 0.5 h (LCS, VPA) or 1.0 h (LEV, CBD), literature or own experiments
compound,measurement,setting,value
CC(=O)NC(C(=O)N1CCN(c2cccc(C(F)(F)F)c2)CC1)c1ccccc1 (centres unmarked) [KJ-5],ED50 MES,[1]; [13],89.7 mg/kg
same,ED50 6 Hz (44 mA),[2]; [13],68.0 mg/kg
same,TD50,[3],179.7 ^b mg/kg
same,ED50 6 Hz (32 mA),[4]; [13],29.9 mg/kg
"CCCC(CCC)C(=O)O [VPA, valproic acid, reference compound]",effect on kindling progression,[5],suppressed kindling progression
same,activity in capsaicin-induced pain,[6],active only at the highest administered dose
same,ED50 in the late phase of the formalin test,[7],132.9 mg/kg
same,GABA concentration in the cortex,"[8]; 150 mg/kg, p < 0.05 vs PTZ-kindled control group",significantly decreased
same,glutamate concentration in the hippocampus,[8]; vs nonkindled FST control group,slight decrease
same,mBDNF protein expression in the hippocampus (PTZ kindling-induced overexpression),[9],reversed the overexpression
same,ED50 6 Hz (32 mA),[4]; [14],130.6 mg/kg
"CC[C@@H](C(N)=O)N1CCCC1=O [LEV, levetiracetam]",TD50,[10],>500 ^c mg/kg
same,ED50 MES,[1]; [15],>500 mg/kg
same,ED50 6 Hz (44 mA),[2]; [14],204.0 mg/kg
"COc1cccc2c1C(=O)c1c(O)c3c(c(O)c1C2=O)C[C@@](O)(C(=O)CO)C[C@@H]3O[C@H]1C[C@H](N)[C@H](O)[C@H](C)O1 [doxorubicin, reference compound]","viability at 72 h, 1 µM",[11],~20%
"COC[C@@H](NC(C)=O)C(=O)NCc1ccccc1 [LCS, lacosamide]",ED50 MES,[1]; [15],9.2 mg/kg
same,ED50 6 Hz (44 mA),[2]; [14],6.9 mg/kg
same,ED50 6 Hz (32 mA),[4]; [14],5.3 mg/kg
"C=C(C)[C@@H]1CCC(C)=C[C@H]1c1c(O)cc(CCCCC)cc1O [CBD, cannabidiol]",ED50 MES,[1]; [15],80.0 mg/kg
same,inhibition at 100 µM,TRPV1 (VR1) (h),47.8%
same,inhibition at 100 µM,CB1 (h),103%
same,% inhibition of control specific binding,[12],58.0%
same,% inhibition of control specific binding,Na+ channel (site 2),94.9%
